Experimental data published in patent US8084497B2, “C-(2-phenyl-cyclohexyl)-methylamine compounds for therapy of fibromyalgia” (Gruenenthal GmbH, priority 2003, dated 2011).
Where a name gives a salt, the structure may show the parent alone. Marks after values point to notes of the source that are not given here.

How the values were obtained:
[1] = target: T1, human μ-opiate receptor (Homo sapiens, UniProt P35372); assay: Affinity for the human μ-opiate receptor ([3H]-naloxone displacement, CHO-K1 membrane preparation, SPA); type: binding
T1 construct: purchased Perkin Elmer, Zaventem, Belgium RB-HOM; host or cells: CHO-K1 cells (recombinant expression)
T1 sequence (P35372 whole entry): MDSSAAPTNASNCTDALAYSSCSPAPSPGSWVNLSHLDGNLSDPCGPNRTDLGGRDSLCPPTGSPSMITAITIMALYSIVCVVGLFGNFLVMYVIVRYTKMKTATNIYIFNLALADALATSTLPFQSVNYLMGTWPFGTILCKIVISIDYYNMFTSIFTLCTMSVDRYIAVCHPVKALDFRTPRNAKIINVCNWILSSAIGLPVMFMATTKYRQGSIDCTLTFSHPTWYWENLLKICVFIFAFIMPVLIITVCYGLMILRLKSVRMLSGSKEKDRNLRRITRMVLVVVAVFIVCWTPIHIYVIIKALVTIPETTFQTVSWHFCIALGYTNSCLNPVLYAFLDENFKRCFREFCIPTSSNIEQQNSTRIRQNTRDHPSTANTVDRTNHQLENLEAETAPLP
Protocol: Investigation of the affinity for the human μ-opiate receptor The receptor affinity for the human μ-opiate receptor is determined in a homogeneous set-up in microtitre plates. For this, dilution series of the substances to be tested are incubated with a receptor membrane preparation (15-40 μg protein/250 μl incubation batch) of CHO-K1 cells which express the human μ-opiate receptor (RB-HOM receptor membrane preparation from Perkin Elmer, Zaventem, Belgium) in the presence of 1 nmol/l of the radioactive ligand [^3H]-naloxone (NET719, Perkin Elmer, Zaventem, Belgium) and 1 mg WGA-SPA-Beads (wheat germ agglutinin SPA beads from Amersham/Pharmacia, Freiburg, Germany) in a total volume of 250 μl for 90 minutes at room temperature. 50 mmol/l Tris-HCl supplemented with 0.05% sodium azide and with 0.06% bovine serum albumin is used as the incubation buffer. 25 μmol/l naloxone are additionally added for determination of the non-specific binding. After the end of the ninety-minute incubation time, the microtitre plates are centrifuged for 20 minutes at 1,000 g and the radioactivity is measured in a […] (Microbeta-Trilux, PerkinElmer Wallac, Freiburg, Germany). The percentage displacement of the radioactive ligand from its binding to the human μ-opiate receptor is determined at a concentration of the test substances of 1 μmol/l and stated as the percentage inhibition of the specific binding. Starting from the percentage displacement by various concentrations of the test substances, IC50 inhibitory concentrations which cause a 50 percent displacement of the radioactive ligand are calculated. By conversion by means of the Cheng-Prusoff relationship, Ki values for the test substances are obtained (Cheng and Prusoff 1973).

[2] = tested on: rats; assay: Elevated plus maze test on rats (onset of anxiolytic actions); type: in vivo, rat
Protocol: In the elevated plus maze test the actions of substances on the endogenous anxiety of rodents towards open and elevated places are determined.
The apparatus was placed approx. 1 m above the floor and comprised four arms arranged in a cross, two opposite arms being open and two closed. […] The duration of stay and the number of entries into the open arms were evaluated. The group size was 10-15 animals. The single administration of the test substances or of the control vehicle took place 30 min before testing.
It is reported in the literature that benzodiazepines induce an increased duration of stay and entries into the open compartment. […] The typical disadvantages of monoamine reuptake inhibitors in the therapy of anxiety patients, namely the delayed onset of action and the initially anxiogenic-like effects, can thus be followed in the elevated plus maze test on rats. The elevated plus maze test is therefore a suitable animal model for the investigation of new therapies which have the aim of accelerating the onset of action of monoamine reuptake inhibitors.
Statistical evaluation: Anova plus post-hoc Dunnett's test (Significance level: p<0.05; *: significant versus vehicle; #: significant versus intrinsic effect of 16 mg/kg i.p. 3-(2-dimethylaminomethyl-cyclohexyl)-phenol).

[3] = target: T2, 5-HT reuptake (Rattus norvegicus, UniProt P31652); assay: 5-HT reuptake inhibition in rat brain synaptosomes (medulla+pons); type: biochemical
T2 construct: synaptosomes are freshly isolated from areas of the rat brain; from tissue; host or cells: P2 synaptosome fraction from the medulla+pons region of male rat brain
T2 sequence (P31652 whole entry): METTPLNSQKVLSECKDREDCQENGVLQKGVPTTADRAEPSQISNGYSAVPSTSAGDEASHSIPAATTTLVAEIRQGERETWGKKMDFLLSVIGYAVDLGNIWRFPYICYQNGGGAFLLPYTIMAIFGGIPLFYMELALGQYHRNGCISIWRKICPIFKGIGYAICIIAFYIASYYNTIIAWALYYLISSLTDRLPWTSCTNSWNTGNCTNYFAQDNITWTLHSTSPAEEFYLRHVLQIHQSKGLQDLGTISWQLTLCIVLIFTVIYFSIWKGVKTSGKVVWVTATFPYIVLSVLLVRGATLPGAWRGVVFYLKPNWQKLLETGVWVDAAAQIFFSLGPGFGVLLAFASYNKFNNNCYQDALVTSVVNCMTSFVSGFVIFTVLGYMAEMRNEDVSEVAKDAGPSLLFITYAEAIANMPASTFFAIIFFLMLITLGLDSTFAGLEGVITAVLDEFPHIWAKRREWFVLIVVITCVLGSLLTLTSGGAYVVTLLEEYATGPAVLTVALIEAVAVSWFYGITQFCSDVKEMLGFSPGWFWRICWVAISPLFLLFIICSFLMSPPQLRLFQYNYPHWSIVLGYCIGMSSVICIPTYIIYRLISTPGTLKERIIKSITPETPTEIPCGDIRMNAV
Source text: In order to be able to carry out these in vitro studies, synaptosomes are freshly isolated from areas of the rat brain. […] For the NA reuptake these vesicular particles are isolated from the hypothalamus, and for the 5-HT reuptake from the medulla+pons region of male rat brains.
The IC50 values were obtained with the aid of the computer program “Figure P” (version 6.0, Biosoft, Cambridge, England). […] The computer program “Ligand” (version 4, Biosoft, England) was used to display KD values.

[4] = 16 mg/kg i.p., single administration 30 min before testing
[5] = 8 mg/kg i.p., single administration 30 min before testing
[6] = 1 mg/kg i.p., single administration
[7] = 2 mg/kg i.p., single administration

SMILES | Open arms: Duration of stay [2, 4] | Open arms: Number of entries [2, 4] | anxiolytic action (in words) ([2]; single administration) | duration of stay in the open arms (in words) ([2]; single administration) | number of entries into the open arms (in words) ([2]; single administration) | Ki [1] | Ki [3] | also measured
COc1ccc(C(CN(C)C)C2(O)CCCCC2)cc1 (centres unmarked) [Venlafaxine] | 66.9 s | 4.6 | no anxiolytic action | – | – | – | – | μ-Opioid receptor affinity (Ki values) ([1]; [3H]-naloxone, CHO-K1 membranes): inactive
CN(C)CC1CCCCC1c1cccc(O)c1 (centres unmarked) [3-(2-Dimethylaminomethyl-cyclohexyl)-phenol] | 118.2* sec | 8.5 | significant anxiolytic actions | significant increase | clear increase | – | – | ratio between the μ-opioid component and the monoamine reuptake inhibition (in words) ([1]; versus 5-HT and NA reuptake inhibition): balanced ratio; Open arms: Duration of stay [2, 5]: 29.0 s; Open arms: Number of entries [2, 5]: 3.2; anxiogenic-like action (in words) ([2]; acute administration): In no case was an anxiogenic-like action induced
CN(C)CC1CCCCC1c1cccc(O)c1 (centres unmarked) [3-(2-Dimethylaminomethyl-cyclohexyl)-phenol, hydrochloride] | – | – | – | – | – | 140 nM | 50 nM | –
C=CCN1CC[C@]23c4c5ccc(O)c4O[C@H]2C(=O)CC[C@@]3(O)[C@H]1C5 [Naloxone] | – | – | – | – | – | – | – | Open arms: Duration of stay [2, 6]: 28.6 s; Open arms: Number of entries [2, 6]: 4.5
CNCC1CCCCC1c1cccc(O)c1 (centres unmarked) [3-(2-Methylaminomethyl-cyclohexyl)-phenol hydrochloride] | – | – | – | – | – | 870 nM | 5670 nM | –
CN1C(=O)CN=C(c2ccccc2)c2cc(Cl)ccc21 [Diazepam] | – | – | – | increase | increase | – | – | Open arms: Duration of stay [2, 7]: 77.7* sec; Open arms: Number of entries [2, 7]: 8.1*
